Test results reported in US20250270180A1, “MEK INHIBITORS AND THERAPEUTIC USES THEREOF” (Immuneering Corporation, priority 2020, published 2025).
Converted amounts (≈) assume the structure as drawn. Like-named read-outs stand apart in the source and are kept apart here.

Assays:
[1] = Absorption & efflux: Caco-2 permeability; conditions: human
Colon-26 KRAS-G12D tumor = assay: Colon-26 model (KRAS G12D CRC): efficacy & safety; format: in vivo; conditions: Colon-26 KRAS-G12D in Balb/c
Description: Female athymic BALB/c nude or BALB/c mice (Beijing Vital River Laboratory Animal Technology Co., Ltd.), approximately 8-10 weeks old were used in these studies. Animals were maintained in individually vented cages on a 12-h light-dark cycle. Food and water were available ad libitum. The Colon-26 tumor cells were maintained in vitro with RPMI1640 medium supplemented with 10% fetal bovine serum at 37° C. in an atmosphere of 5% CO2 in air. The cells in exponential growth phase were harvested and quantitated by cell counter before tumor inoculation. Each mouse was inoculated subcutaneously in the right flank region with Colon-26 tumor cells (5×10^5) in 0.1 mL of PBS. Randomization was started when the mean tumor size reached approximately 125 mm3. A total of 84 tumor-bearing mice were enrolled in the study and allocated into 7 treatment groups (12 mice per group). Also 12 non-tumor-bearing mice were assigned as un-treated group.
Animals were treated with either vehicle (10% DMSO/90% [20% SBE-β-CD in saline], pH 5) or vehicle containing compounds at the indicated doses by gavage (p.o.) twice daily for approximately 28-42 days (BID x 28-42 p.o.), or to ethical endpoints (BWL>20%; Median Tumor Volume (MTV)>2000 mm3; Individual TV>3000 mm3; clinical signs of unwell). Clinical signs of unwell was characterized, but not limited to the following. Severe dehydration, hypothermia, abnormal/labored respiration, lethargy, obvious pain, diarrhea, skin lesions, neurological symptoms, impaired mobility (not able to eat or drink) due to significant ascites and enlarged abdomen, astasia, continuous prone or lateral position, signs of muscular atrophy, paralytic gait, clonic convulsions, tonic convulsions, persistent bleeding from body orifice. Dosing as well as tumor and body weight measurements were conducted in a Laminar Flow Cabinet.
Animals were checked daily for morbidity and mortality. During routine monitoring, the animals were checked for any effects of tumor growth and treatments on behavior such as mobility, food and water consumption, body weight gain/loss (body weights were measured twice per week after randomization), eye/hair matting and any other abnormalities. Mortality and observed clinical signs were recorded for individual animals in detail.
Tumor volumes were measured twice per week after randomization in two dimensions using a caliper, and the volume was expressed in mm3 using the formula: V=(L×W×W)/2, where V is tumor volume, L is tumor length (the longest tumor dimension) and W is tumor width (the longest tumor dimension perpendicular to L). Results were presented as the median tumor volume, expressed in mm3+/−interquartile range, of each group. Tumor Growth Inhibition; TGI %=[1−(Ti/(Ci)]×100; where Ti as the median tumor volume of the treatment group on the measurement day, Ci as the median tumor volume of control group at the measurement day.

[2] = Microsome stability, beagle dog; format: in vitro ADME; conditions: microsomes, 2 μM
CYP450 3A4 = CYP450 3A4 (Homo sapiens, UniProt P08684); assay: CYP450 panel, 3A4; conditions: 10 μM; for 3A4*: substrate midazolam; for 3A4^: substrate testosterone
PAMPA (pH 7.4) = assay: PAMPA (pH 7.4)
Description: Each stock solution was diluted to 50 uM in pH 7.4 Prisma HT buffer (pION) and 200 ul was added to each well of the donor plate in triplicate. The polyvinylidene fluoride (PVDF, 0.45 μm) filter membrane on the acceptor plate was coated with 5 ul gastrointestinal tract lipid formulation (GIT-0, pION) and to each well of the acceptor plate, 200 μl of acceptor sink buffer (pION) was added. The acceptor filter plate was then carefully placed on top of the donor plate to form a sandwich. The sandwich was incubated at 25° C. for 4 h without stirring. UV-vis spectra of the solutions in the blank, reference, acceptor and donor plates were measured using a microplate reader (Tecan Infinite 200PRO M Nano Plus). Permeability values were calculated using the PAMPA explorer software v. 3.8.0.2 (pION).

[3] = eLogD (lipophilicity; pH 7.4); format: physicochemical
Description: Test compounds were dissolved in DMSO at a concentration of 10 mM and further diluted with methanol: water 1:1. Samples were analyzed using gradient HPLC with three different isocratic mobile phases of 0.25% octanol in methanol (60, 65 and 70%) and 20 mM MOPS buffer (pH 7.4) with decylamine. If needed, (for low ElogDoct compounds) the isocratic mobile phases were adjusted to e.g. 40, 45 and 50% methanol. Peaks were detected using a diode array at absorbance 220-320 nm.
Capacity factors data (k′ _=(tr−_t0)/t0) obtained at various amounts of methanol were extrapolated to 0% methanol and k′w values are determined using a linear procedure. ElogDoct (7.4) is calculated using a series of reference standards with known Log D values. Each experiment was performed in triplicate.

CYP450 1A2 = biological target: T1, CYP450 1A2 (Homo sapiens, UniProt P05177); assay: CYP450 panel, 1A2; format: in vitro ADME; conditions: 10 μM; substrate phenacetin
T1 sequence (P05177 1-516): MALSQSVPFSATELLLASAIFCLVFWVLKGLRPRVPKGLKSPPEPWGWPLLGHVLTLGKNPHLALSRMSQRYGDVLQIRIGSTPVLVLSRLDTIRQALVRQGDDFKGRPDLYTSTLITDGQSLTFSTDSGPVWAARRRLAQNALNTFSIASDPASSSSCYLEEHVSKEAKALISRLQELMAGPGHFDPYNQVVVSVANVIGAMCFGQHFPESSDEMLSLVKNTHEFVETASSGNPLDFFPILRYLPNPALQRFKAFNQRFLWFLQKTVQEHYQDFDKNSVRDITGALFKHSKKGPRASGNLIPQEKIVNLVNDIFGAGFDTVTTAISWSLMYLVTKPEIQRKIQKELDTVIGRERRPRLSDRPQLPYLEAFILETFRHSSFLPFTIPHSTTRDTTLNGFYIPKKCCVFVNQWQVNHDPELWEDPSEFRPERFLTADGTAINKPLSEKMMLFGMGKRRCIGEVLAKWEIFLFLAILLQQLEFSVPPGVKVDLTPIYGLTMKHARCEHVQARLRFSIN

[4] = Kinetic solubility (PBS pH 7.4; 4 hr); format: physicochemical
Description: The plates were shaken for 4 h at room temperature in an Eppendorf Thermomixer. After incubation, the plates were centrifuged for 20 minutes at 4680 rpm. From the supernatant, 150 uL was transferred to a new 96 well plate and 50 uL DMSO was added to ensure continued dissolution. Samples were measured on LC-UV at injection volumes of 1 and 8 uL. Peak areas were determined and compared to peak areas obtained using calibration curves of the test compounds in DMSO.

[5] = 10 mM PBS buffer, aqueous buffer, kinetic from dmso stock

Sequence of CYP450 3A4 (P08684 whole entry): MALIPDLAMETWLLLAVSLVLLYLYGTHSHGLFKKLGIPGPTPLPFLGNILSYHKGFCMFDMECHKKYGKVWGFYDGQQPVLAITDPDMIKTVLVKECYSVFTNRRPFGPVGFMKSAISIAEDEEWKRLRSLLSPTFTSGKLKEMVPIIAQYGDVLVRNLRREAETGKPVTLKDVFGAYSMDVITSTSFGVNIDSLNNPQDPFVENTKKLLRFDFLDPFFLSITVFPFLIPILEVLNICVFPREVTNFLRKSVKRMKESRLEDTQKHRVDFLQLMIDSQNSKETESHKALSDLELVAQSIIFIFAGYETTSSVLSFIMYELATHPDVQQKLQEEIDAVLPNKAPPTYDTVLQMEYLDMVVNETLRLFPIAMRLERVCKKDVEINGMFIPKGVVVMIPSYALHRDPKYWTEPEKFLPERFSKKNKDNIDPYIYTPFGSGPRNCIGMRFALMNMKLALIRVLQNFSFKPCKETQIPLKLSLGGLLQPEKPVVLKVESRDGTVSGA

Compound	Papp B→A at 2 h, 10 μM [1]	efflux ratio at 2 h, 10 μM [1]	Papp A→B at 2 h, 10 μM ([1]; Caco-2, A-B Permeability Ranking, 10 μM, 2 hrs)	Papp A→B at 2 h, 10 μM ([1]; Caco-2, Mean Papp A-B (10^−6 cm/s), 10 μM, 2 hrs)	BWL (Day 14) (Colon-26 KRAS-G12D tumor; 150 mg/kg BID po)	BWL (Day 17) (Colon-26 KRAS-G12D tumor; 150 mg/kg BID po)	TGI (Day 10) (Colon-26 KRAS-G12D tumor; 150 mg/kg BID po)	Beagle Dog (% Reamining @1 hour) [2]	3A4* (CYP450 3A4)	3A4^ (CYP450 3A4)	Papp at 4 h, 50 uM (PAMPA (pH 7.4); PAMPA)	eLogD (lipophilicity; pH = 7.4) [3]	1A2* (CYP450 1A2)	solubility kinetic at 4 h [4, 5]	Papp A→B at 2 h, 10 μM [1]	BWL (Day 14) (Colon-26 KRAS-G12D tumor; 50 mg/kg BID po)	BWL (Day 17) (Colon-26 KRAS-G12D tumor; 50 mg/kg BID po)	TGI (Day 10) (Colon-26 KRAS-G12D tumor; 50 mg/kg BID po)	PAMPA (pH = 7.4; Papp 10^−6 cm/s) (PAMPA (pH 7.4))	solubility kinetic at 4 h [4]
CNS(=O)(=O)Nc1cccc(Cc2c(CN(C)C)c3ccc(OC(=O)N(C)C)cc3oc2=O)c1F [Compound 9]	21 ×10⁻⁶ cm/s	1.62	> 1 ×10⁻⁶ cm/s	13 ×10⁻⁶ cm/s	0%	0%	93.9%	76.5%	16.3	26.8	37 ×10⁻⁶ cm/s	3.0	4.8	> 80 µM						
Cn1cnc2c(F)c(Nc3ccc(Br)cc3Cl)c(C(=O)NOCCO)cc21 [Reference 1, Selumetinib, reference compound]								97.5%	25.9	21.4		3.6	8.3		> 1 ×10⁻⁶ cm/s	0%	−2%	60.0%	29 10^−6 cm/s	36 µM (≈ 16.5 µg/mL)
CNS(=O)(=O)Nc1nccc(Cc2c(C)c3ccc(Oc4ncccn4)cc3oc2=O)c1F [Reference 2, reference compound]								111.6%	16.6	15.7		3.6	0.8	36 µM (≈ 17 µg/mL)	> 1 ×10⁻⁶ cm/s			61.6%	29 10^−6 cm/s	
